Assay results: article PMC6479983, “Activity of Estafietin and Analogues on Trypanosoma cruzi and Leishmania braziliensis” (Molecules, 2019)
In brackets after ≈: the same amount, converted by molar mass. Entries after “also recorded” stand apart in the source; their conditions may differ.

What was measured:
[1] = tested on: L. braziliensis promastigotes; experiment: Leishmanicidal activity on L. braziliensis promastigotes ([3H] thymidine uptake assay); type: cell-based, Leishmania braziliensis; conditions: for IC50: Leishmania braziliensis, 72 h, 0-50 µg/mL, [3H] thymidine uptake; for Selectivity Index Promastigotes L. braziliensis: Vero CC50 relative to promastigote IC50
Protocol: Figure 4 Leishmanicidal activity of estafietin (1) and estafietin derivatives (2–5) on L. braziliensis promastigotes. Parasites were cultured for 72 h in the presence of each compound (0–50 µg/mL). The inhibition of parasite growth was evaluated by a [^3H] thymidine uptake assay. The percentage of inhibition was calculated as 100 − [(cpm of treated parasites)/(cpm of untreated parasites)] × 100. Values represent mean ± SEM from three independent experiments carried out in triplicate. Each treatment was compared to controls: parasites incubated with culture medium only. * p < 0.05, ** p < 0.01 and *** p < 0.005. TEXT PRINTED IN THE PICTURE: Estafietin (1): IC50 (μg/mL): 1.0 | 11βH,13-dihydroestafietin (2): IC50 (μg/mL): 1.3 | α and β epoxyestafietin (3a and 3b): IC50 (μg/mL): 7.8 | 11βH,13-methoxyestafietin (4): IC50 (μg/mL): 48.7 | 11βH,13-cianoestafietin (5): IC50 (μg/mL): 51.8
The growth inhibition of Leishmania braziliensis promastigotes was evaluated by the (^3H) thymidine [(^3H)T] uptake assay. Parasites (5 × 10^6) were settled at a final volume of 150 µL in a flat-bottom 96-well microplate and cultured at 28 °C in either the absence or the increasing concentrations of the pure compounds (0–50 µg/mL). After 72 h, 1 µC of [^3H]T was added to each well, and cultures were incubated for 16 h. Counts per minute (cpm) of triplicate cultures were measured by an automated liquid scintillation counter (Packard, Downers Grove, IL, USA). The percentage of inhibition was calculated as {100 − [(cpm of treated parasites/cpm of untreated parasites) × 100]}. The compound concentration at which the parasite growth was inhibited by 50% (IC50) was determined. Amphotericin B was used as positive control.
(§1) Results are presented as means ± SEM. The GraphPad Prism 5.0 software (GraphPad Software Inc., San Diego, CA, USA) was employed to carry out calculations. To calculate IC50 and CC50 values, the percentages of inhibition were plotted against the drug concentration and fitted with a straight line determined by a linear regression (Sigma Plot 10 software, (Systat Software, San Jose, CA, USA). Results presented are representative of three to four independent experiments.

[2] = tested on: T. cruzi bloodstream trypomastigotes; experiment: Trypanocidal activity on T. cruzi bloodstream trypomastigotes (counting of living parasites in Neubauer chamber); type: cell-based, Trypanosoma cruzi; conditions: for IC50: Trypanosoma cruzi, 24 h incubation, 0-100 µg/mL, living parasites counted, read-out: IC50 against T. cruzi bloodstream trypomastigotes; for Selectivity Index Trypomastigotes T. cruzi: Vero CC50 relative to trypomastigote IC50; for activity against the infective form of T. cruzi compared with estafietin (in words): trypomastigotes, discussion statement
Protocol: Figure 2 Trypanocidal activity of estafietin (1) and estafietin derivatives (2–5) against T. cruzi bloodstream trypomastigotes. Bloodstream trypomastigotes were assayed in duplicate in the presence of 0 to 100 µg/mL of estafietin (1), 11βH,13-dihydroestafietin (2), α- (3a) and β-epoxyestafietin (3b) (1:4 mixture), 11βH,13-methoxyestafietin (4) and 11βH,13-cianoestafietin (5). Cultures were done in 96-well plates with 1.5 × 10^6 parasites/mL over 24 h. The living parasites were then counted in a Neubauer chamber. Symbols represent mean ± SEM. Each treatment was compared to controls: parasites incubated with culture medium only. * p < 0.05, ** p < 0.01 and *** p < 0.005. TEXT PRINTED IN THE PICTURE: Estafietin (1): IC50 (μg/mL): 25.2 | 11βH,13-dihydroestafietin (2): IC50 (μg/mL): 97.1 | α and β epoxyestafietin (3a and 3b): IC50 (μg/mL): 18.7 | 11βH,13-methoxyestafietin (4): IC50 (μg/mL): >100 | 1βH,13-cianoestafietin (5): IC50 (μg/mL): 78.1
The trypanocidal effect of the purified compounds was tested on transfected bloodstream trypomastigotes (Tulhauen strain). Briefly, mouse blood containing trypomastigotes was diluted in complete LIT medium to adjust the parasite concentration to 2 × 10^6/mL. Parasites were seeded in duplicate in a 96-well microplate in the presence of each compound (0–100 µg/mL) and controls and incubated at 4 °C for 24 h. The number of remaining living parasites in each sample was determined in 5 µL of cell suspension diluted 1/5 in lysis buffer (0.75% NH4Cl, 0.2% Tris, pH 7.2) and counted in a Neubauer chamber.
as §1

T. cruzi amastigotes = experiment: Inhibition of T. cruzi amastigote replication in Vero cells (β-galactosidase transfected parasites, CPRG); type: cell-based, Trypanosoma cruzi; conditions: for IC50: infected Vero cells, 0-100 µg/mL, β-galactosidase/CPRG readout, read-out: IC50 against T. cruzi amastigotes (intracellular forms); for Selectivity Index Amastigotes T. cruzi: Vero CC50 relative to amastigote IC50
Protocol: Figure 3 Inhibition of T. cruzi amastigotes replication by estafietin (1) and estafietin derivatives (2–5). Mammalian cells (5 × 10^3 cells/well) were seeded in 96-well plates and infected 24 h later with transfected trypomastigotes expressing β-galactosidase. After 24 h of co-culture, plates were washed and compounds were added at 0–100 µg/mL in 150 µL medium. On day 6 post-infection, the assays were developed by the addition of CPRG (100 mM) and Nonidet P-40 (1%). Plates were incubated for 6 h and the optical density was read at 570 nm. Infected untreated mammalian cells were used as 100% infection control. The percentage of inhibition was calculated as 100 − {[(Absorbance of treated infected cells)/(Absorbance of untreated infected cells)] × 100}. Symbols represent mean ± SEM. Each treatment was compared to controls: parasites incubated with culture medium only. * p < 0.05, ** p < 0.01 and *** p < 0.005. TEXT PRINTED IN THE PICTURE: Estafietin (1): IC50 (μg/mL): 28.8 | 11βH,13-dihydroestafietin (2): IC50 (μg/mL): 83.0 | α and β epoxyestafietin (3a and 3b): IC50 (μg/mL): 2.0 | 11βH,13-methoxyestafietin (4): IC50 (μg/mL): 30.5 | 11βH,13-cianoestafietin (5): IC50 (μg/mL): 99.0
The effect of the compounds on intracellular forms of T. cruzi was assayed using β-galactosidase transfected parasites. Ninety-six well culture plates were seeded with nonphagocytic Vero cells at 5 × 10^3 per well in […] of culture medium and incubated for 24 h at 37 °C in a 5% CO2 atmosphere. Cells were then washed and infected with transfected bloodstream trypomastigotes expressing β-galactosidase at a parasite/cell ratio of 10:1. After […] of coculture, plates were washed twice with PBS to remove unbound parasites and each pure compound was added at different concentrations (0–100 µg/mL) in 150 µL of fresh complete RPMI medium without phenol red (Gibco, Rockville, MD, USA). Controls included infected untreated cells (100% infection control) and uninfected cells (0% infection control). The assay was developed by the addition of chlorophenolred-β-D-galactopyranoside (CPRG) (100 mM) and 1% Nonidet P40, 5 days later. Plates were incubated for 4–6 h at 37 °C and the absorbance was measured at 595 nm in a microplate reader (Bio-Rad Laboratories, Hercules, CA, USA). The percentage inhibition was calculated as 100 – {[(absorbance of treated infected cells)/(absorbance of untreated infected cells) × 100]} and the IC50 value was estimated. Benznidazole was used as positive control.
as §1

[3] = Host cell toxicity on Vero cells by the MTT method; type: cell-based; conditions: African green monkey, 24 h, 5-500 µg/mL, read-out: CC50 (50% cytotoxic concentration)
Protocol: (§2) The cytotoxicity of the natural and synthetic compounds was evaluated on Vero cells by the MTT method. The 50% cytotoxic concentration (CC50) of each compound was determined. Selectivity indexes (SI) were calculated for T. cruzi trypomastigotes and amastigotes and for L. braziliensis promastigotes (Table 1).
(§3) Vero cells were employed to determine the viability by the 3-(4,5-dimethylthiazol-2yl)-2,5-diphenyltetrazolium bromide (MTT) method. Cells (5 × 10^5) were settled at a final volume of […] in a flat-bottom 96-well microplate and cultured at 37 °C in a 5% CO2 atmosphere in either the absence or the presence of increasing concentrations of the compounds (5–500 µg/mL). After 24 h, MTT was added at a final concentration of 1.5 mg/mL. Plates were incubated for 2 h at 37 °C. The purple formazan crystals formed were dissolved with […] of ethanol and the absorbance was read at 570 nm in a microplate reader. Results were calculated as the ratio between the optical density in the presence and absence of the compound multiplied by 100.
as §1

Vero cells = experiment: Host cell toxicity on Vero cells by the MTT method; type: cell-based
Protocol: as §2, §3, §1

T. cruzi epimastigotes = tested on: T. cruzi epimastigotes; parameters: method as in PMID 23815577; conditions: series of 15 STLs; cited from earlier work

C[C@@H]1[C@H](O)[C@@H](C)/C=C/C=C/C=C/C=C/C=C/C=C/C=C/[C@H](O[C@@H]2O[C@H](C)[C@@H](O)[C@H](N)[C@@H]2O)C[C@@H]2O[C@](O)(C[C@@H](O)C[C@@H](O)[C@H](O)CC[C@@H](O)C[C@@H](O)CC(=O)O[C@H]1C)C[C@H](O)[C@H]2C(=O)O [Amphotericin B, reference compound]
IC50 [1]: 0.48 µg/mL (≈ 0.519 µM)

O=C(Cn1ccnc1[N+](=O)[O-])NCc1ccccc1 [Benznidazole, reference compound]
IC50 [2]: 11.6 µg/mL (≈ 44.6 µM) | IC50 (T. cruzi amastigotes; Trypanosoma cruzi): 1.8 µg/mL (≈ 6.92 µM)

C=C1CC[C@H]2C(=C)C(=O)O[C@@H]2C2C1C[C@H]1O[C@@]21C (stereo partly shown) [Compound 1, estafietin]
IC50 [2]: 25.2 µg/mL (≈ 102 µM) | Selectivity Index Trypomastigotes T. cruzi [2]: 9.5 | IC50 (T. cruzi amastigotes; Trypanosoma cruzi): 28.8 µg/mL (≈ 117 µM) | Selectivity Index Amastigotes T. cruzi (T. cruzi amastigotes): 8.3 | IC50 [1]: 1 µg/mL (≈ 4.06 µM) | Selectivity Index Promastigotes L. braziliensis [1]: 240.4 | CC50 at 24 h [3]: 240 µg/mL (≈ 976 µM) | toxicity on mammalian cells (in words) (Vero cells): low toxicity | activity on T. cruzi epimastigotes (in words) (T. cruzi epimastigotes): significant activity

C=C1CCC2C(C)C(=O)OC2C2C1CC1OC12C (stereo not shown) [Compound 2, 11βH,13-dihydroestafietin]
IC50 [2]: 97.1 µg/mL (≈ 391 µM) | Selectivity Index Trypomastigotes T. cruzi [2]: 1.7 | activity against the infective form of T. cruzi compared with estafietin (in words) [2]: less active | IC50 (T. cruzi amastigotes; Trypanosoma cruzi): 83 µg/mL (≈ 334 µM) | Selectivity Index Amastigotes T. cruzi (T. cruzi amastigotes): 2.0 | IC50 [1]: 1.3 µg/mL (≈ 5.24 µM) | Selectivity Index Promastigotes L. braziliensis [1]: 126.6 | CC50 at 24 h [3]: 165 µg/mL (≈ 663 µM) | toxicity on mammalian cells (in words) (Vero cells): low toxicity

C=C1C(=O)O[C@@H]2C3C(C[C@H]4O[C@@]34C)C3(CC[C@@H]12)CO3 (stereo partly shown) [Compound 3, epoxyestafietin]
IC50 [2]: 18.7 µg/mL (≈ 71.3 µM) | Selectivity Index Trypomastigotes T. cruzi [2]: 0.4 | inhibition at 5 µg/mL (T. cruzi amastigotes; Trypanosoma cruzi, Vero, at a concentration of 5.0 µg/mL, read-out: percentage of inhibition of T. cruzi amastigotes): > 75% | IC50 (T. cruzi amastigotes; Trypanosoma cruzi): 2 µg/mL (≈ 7.62 µM) | Selectivity Index Amastigotes T. cruzi (T. cruzi amastigotes): 4.0 | IC50 [1]: 7.8 µg/mL (≈ 29.7 µM) | Selectivity Index Promastigotes L. braziliensis [1]: 1.0 | CC50 at 24 h [3]: 8.1 µg/mL (≈ 30.9 µM)

C=C1CCC2C(COC)C(=O)OC2C2C1CC1OC12C (stereo not shown) [Compound 4, 11βH,13-methoxyestafietin]
IC50 [2]: > 100 µg/mL | Selectivity Index Trypomastigotes T. cruzi [2]: 3.1 | activity against the infective form of T. cruzi compared with estafietin (in words) [2]: less active | IC50 (T. cruzi amastigotes; Trypanosoma cruzi): 30.5 µg/mL (≈ 110 µM) | Selectivity Index Amastigotes T. cruzi (T. cruzi amastigotes): 10.3 | IC50 [1]: 48.7 µg/mL (≈ 175 µM) | CC50 at 24 h [3]: 316 µg/mL (≈ 1130 µM) | toxicity on mammalian cells (in words) (Vero cells): low toxicity; also recorded: not toxic

C=C1CCC2C(CC#N)C(=O)OC2C2C1CC1OC12C (stereo not shown) [Compound 5, 11βH,13-cianoestafietin]
IC50 [2]: 78.1 µg/mL (≈ 286 µM) | Selectivity Index Trypomastigotes T. cruzi [2]: 1.7 | activity against the infective form of T. cruzi compared with estafietin (in words) [2]: inactive | IC50 (T. cruzi amastigotes; Trypanosoma cruzi): 99 µg/mL (≈ 362 µM) | Selectivity Index Amastigotes T. cruzi (T. cruzi amastigotes): 1.3 | IC50 [1]: 51.8 µg/mL (≈ 190 µM) | Selectivity Index Promastigotes L. braziliensis [1]: 2.7 | CC50 at 24 h [3]: 134 µg/mL (≈ 489 µM) | toxicity on mammalian cells (in words) (Vero cells): low toxicity
